Reference: patent US20220362279A1, “USE OF OLIGONUCLEOTIDES FOR THE TREATMENT AND PREVENTION OF PAIN” (CONSEJO NACIONAL DE INVESTIGACIONES CIENTÍFICAS Y TÉCNICAS, priority 2018, published 2022)
Entries after “also recorded” stand apart in the source; their conditions may differ. Strand notation (5' to 3'): a small letter for the sugar, then the base; units joined by * are phosphorothioate-linked, units joined directly phosphodiester-linked; [ ] holds rarer units or linkages, { } end groups; capitals alone tell only the bases. d = 2'-deoxy (DNA)

How the values were obtained:
naïve rats = assay: Hind paw mechanical withdrawal threshold in naïve rats; format: in vivo, rat; settings: 20 mg/kg daily x5; observed up to 22 days; vs saline-treated naïve rats
Protocol: (§1) Naïve (uninjured and untreated; n=16), CFA injured untreated (n=10), and vehicle-treated CFA (n=9) or SNI rats (n=10) were used as controls. Eight naïve rats remained untreated, four were vehicle-treated, and four received a daily dose of 20 mg/kg IMT504 for five consecutive days. Untreated CFA rats received an intradermal hind paw injection of CFA and no further treatment. Vehicle-treated CFA rats received five daily subcutaneous injections of saline (200 μl), starting seven days after injury. Vehicle-treated SNI rats received one single dose of saline (200 ul), starting seven days after injury.
(§2) For mechanical allodynia assessment, a set of von Frey filaments (Stoelting, Ill., USA) and the modified up-down method of Dixon were used, as described by Chaplan et al. (Chaplan S R, et, al., (1994) J. Neurosci Methods 53: 55-632) to establish the 50% withdrawal threshold. A withdrawal threshold of 6 g or less was considered an allodynic response.

[1] = tested on: rats with hind paw inflammation (CFA rats); assay: Mechanical allodynia (von Frey, 50% withdrawal threshold) in rats with CFA-induced hind paw inflammation; format: in vivo, rat
Protocol: (§3) In fifty-two rats anesthetized with Isoflurane (5% induction, 2.5% maintenance, 0.8 L/min O2 flow rate; Piramal Healthcare, UK), the right hind paw was injected intra-dermally with 100 μl of CFA (1:1, dissolved in normal saline; Sigma-Aldrich, Mo., USA), using a 1 ml syringe with a 25G needle attached. The animals (from now on, called CFA rats) were left to recover from anesthesia in a warm and quiet environment before relocating them in their corresponding cages.
In one set of experiments, called “preventive treatment”, four rats received a daily dose of 20 mg/kg IMT504 for five consecutive days and four weeks later one dose of 6 mg/kg (group a); a second group of four rats received one dose of 6mg/kg of IMT504 (group b) (FIG. 1A). Three days after the single injection of 6 mg/kg IMT504, all eight rats received intra-plantar CFA, after which they were tested for mechanical and cold allodynia during 21 days. At day 28, group b received an additional administration of IMT504 at a dose of 3 mg/kg and was evaluated until day 35.
In a second set of experiments, groups of rats were allocated to early or late treatment protocols (ET and LT, respectively), using a daily dose of 20 mg/kg IMT504 for five consecutive days (FIG. 2A). The ET protocol (n=5) was performed immediately after the intradermal injection of CFA in the hind paw; the LT protocol (n=5) was initiated seven days after the induction of hind paw inflammation (FIG. 2A). In all cases, animals where tested for pain-like behavior during four weeks after the induction of hind paw inflammation (days 1, 3, 7; weeks 2, 3 and 4).
In a third set of experiments, different concentrations and dosages of IMT504 were administered subcutaneously using the LT protocol (FIG. 3A). Rats were separated in three groups (n=5 per group) and treated as follows: i) a daily dose of 0.2 mg/kg of IMT504 for five consecutive days, ii) a daily dose of 2 mg/kg of IMT504 for five consecutive days, and iii) a daily dose of 2 mg/kg of IMT504 for three consecutive days. All these groups were tested for pain-like behavior up to seven weeks after induction of the hind paw inflammation.
as §1, §2
as §3, with “seventeen” for “fifty-two”, “Scott-Cassara, Argentina),” for “Piramal Healthcare, UK),”, “MO,” for “Mo.,”, “needle.” for “needle attached.”, “(called” for “(from now on, called”, “relocating” for “relocating them”
Eight rats received a dose of 6 mg/kg IMT504 (FIGS. 2 and 3). Three days after the single injection of 6 mg/kg IMT504, all rats received intra-plantar complete Freund's Adjuvant (CFA), after which they were tested for mechanical and cold allodynia during 21-35 days. On day 28 (FIG. 1) or 28 (FIG. 2), rats receiving preventive IMT504 were administered additional IMT504 at a dose of 3 mg/kg (FIG. 1) or 2 mg/kg (FIG. 2), and assessed until days 21-35. […]

[2] = 6 mg/kg 3 days before CFA (FIG. 6, FIG. 8)

For “IMT504: synthetic phosphorothioate oligodeoxynucleotide with sequence 5′-TCATCATTTTGTCATTTTGTCATT-3′ (SEQ ID No 1) (DNA dT*dC*dA*dT*dC*dA*dT*dT*dT*dT*dG*dT*dC*dA*dT*dT*dT*dT*dG*dT*dC*dA*dT*dT)”, the “hind paw mechanical withdrawal threshold in naïve rats” value (naïve rats) was “did not shown changes; also recorded: did not show any evident changes”, the “period after induction of inflammation during which IMT504 prevents mechanical allodynia” value [1, 2] was 7 days and the “time of reaching allodynic levels comparable to vehicle-treated rats” value [1, 2] was 14 days after injury. The “day by which mechanical withdrawal thresholds are fully comparable to injured untreated or vehicle-treated rats” value ([1]; 6 mg/kg 3 days before CFA, both groups (FIG. 10A, 11A)) was 21 days, the “lack of mechanical allodynia until” value ([1]; 6 mg/kg 3 days before CFA, group with booster on day 21 (FIG. 11A)) was 7 days after injury and the “lack of mechanical allodynia until” value ([1]; 6 mg/kg 3 days before CFA, group with booster on day 28 (FIG. 10A)) was 3 days after injury. For the same substance, the “effect of a booster dose of 2 mg/kg IMT504 21 days after injury on mechanical allodynia” value ([1]; 6 mg/kg 3 days before CFA, booster 2 mg/kg day 21 (FIG. 11A)) was “completely restored the anti-allodynic effect”, the “effect of an additional dose of 3 mg/kg IMT504 28 days after injury on mechanical allodynia” value ([1]; 6 mg/kg 3 days before CFA, booster 3 mg/kg day 28, observed one day after re-administration) was “quickly reverted; also recorded: complete reduction in mechanical and cold allodynia; also recorded: full recovery of basal withdrawal thresholds; also recorded: completely restored the anti-allodynic effect” and the “recovery of basal mechanical withdrawal thresholds, ET protocol” value ([1]; 20 mg/kg daily x5, started immediately after CFA) was “reaching basal levels seven days after treatment initiation; also recorded: reaching basal thresholds seven days after injury and onwards”. The “recovery of basal mechanical withdrawal thresholds, LT protocol” value ([1]; 20 mg/kg daily x5, started seven days after CFA) was “fully achieved seven days after initiation of the treatment; also recorded: recovery of basal mechanical withdrawal thresholds starting one week after treatment (two weeks after injury)”, the “withdrawal thresholds of contralateral hind paws” value ([1]; IMT504-treated CFA rats, data not shown) was “remained normal; also recorded: normal basal values” and the “start of progressive recovery towards basal mechanical withdrawal thresholds” value ([1]; LT protocols (0.2 or 2 mg/kg, three or five daily doses from day 7 after CFA), s.c.) was 10 day after injury. For the same substance, the “recovery of mechanical withdrawal threshold” value ([1]; LT, 0.2 mg/kg daily x5, s.c., 0.2 mg/kg) was “slower, incomplete recovery, never reaching basal withdrawal thresholds; also recorded: not reaching the basal level”, the “difference to vehicle-treated CFA rats towards the end of the assay” value ([1]; LT, 0.2 mg/kg daily x5, p>0.05) was “no significant differences with the vehicle-treated CFA rats” and the “reaching basal ipsilateral withdrawal thresholds, counted from initiation of treatment” value ([1]; LT, three or five daily doses of 2 mg/kg, s.c.) was “reaching basal ipsilateral withdrawal thresholds at day five after initiation of the treatment and onwards”. For the same substance, the “persistence of basal withdrawal thresholds” value ([1]; LT, three or five daily doses of 2 mg/kg, s.c., 2 mg/kg) was “maintained basal withdrawal thresholds throughout the whole assay period; also recorded: maintaining such a condition throughout the entire assay (seven weeks)”, the “time at which mechanical withdrawal thresholds reach allodynic levels” value ([1]; preventive IMT504 (20 mg/kg x5 + 6 mg/kg, or 6 mg/kg only) three days before CFA, both groups) was 14 days after injury and the “mechanical allodynia twenty-one days after injury” value ([1]; preventive IMT504, both groups, comparable to untreated CFA-rats) was “all animals reached basal allodynic levels”. The “lack / prevention of mechanical allodynia after CFA-induced inflammation” value ([1]; preventive IMT504: 20 mg/kg daily x5 plus 6 mg/kg four weeks later, or 6 mg/kg only, CFA three days after the 6 mg/kg dose, both groups) was “prevention of mechanical allodynia; also recorded: lack of mechanical allodynia during the first three days”, the “time from which basal withdrawal thresholds are recovered” value ([1]; single dose of 2 mg/kg, one week after CFA) was 21 days after injury and the “recovery of basal withdrawal thresholds” value ([1]; single dose of 2 mg/kg, one week after CFA, 2 mg/kg) was “slower, but finally complete, recovery of basal withdrawal thresholds; also recorded: slower, incomplete recovery, never reaching basal withdrawal thresholds”.
